Laboratory results taken from patent US10174052B2, “Quinuclidine compounds as α-7 nicotinic acetylcholine receptor ligands” (BRISTOL-MYERS SQUIBB COMPANY, priority 2014, dated 2019).
Read-outs that look alike come from different tables or passages of the source.

Target: T1, α7 nicotinic ACh receptor ion channel expressed in mammalian HEK 293 cells (Rattus norvegicus, UniProt Q05941)
T1 construct: expressed in transfected cells
Assay: Ca2+-sensitive fluorescence-based assay for α7 nicotinic acetylcholine receptor channel function (FLIPR), agonist activity
Assay type: cell-based
Description: II) A Ca^2+-Sensitive, Fluorescence-Based Assay α-7 for Nicotinic Acetylcholine Receptor Channel Function in Mammalian Cells (“FLIPR”).
Lead compounds are evaluated for agonist activity at the α7 nicotinic ACh receptor ion channel expressed in mammalian HEK 293 cells. Agonist potency and efficacy values are determined from kinetic fluorescence Ca^2+ influx measurements made using a 384 well FLIPR (Fluorescence Image Plate Reader). The utility of fluorescent indicators for measuring changes in intracellular divalent cation concentrations, particularly Ca^2+, for drug discovery endeavors is well documented (Rudiger, R., et al., Nature Reviews, 2003, 4:579-586; Gonzalez J. E., et al., Receptors and Channels, 2002, 8:283-295). In this assay, channel expressing HEK cell lines seeded in 384 well assay plates are loaded with a membrane permeant fluorescent Ca^2+ indicator dye, whose 510 nm green emission signal increases in response to elevation of intracellular Ca^2+ concentration. The basal fluorescence from the cells is monitored in real time, followed by the acute addition of test compounds. If the compound is an agonist at any of the non-selective cation channels, the latter open and allow the movement of extracellular Ca^2+ ions into the cell cytoplasm, where they bind to the Ca^2+ indicator dye, and produce an increase in fluorescence output signal, which is detected by a cooled CCD imaging camera.
Reagents: The acetomethoxy (AM) ester of the Ca^2+ indicator dye Fluo-4 was obtained from InVitrogen, (Carlsbad, Calif.). Acetylcholine and all buffer constituents were purchased from Sigma Chemical Company, St. Louis, Mo. G418 and Minimal Essential Medium were purchased from InVitrogen Life Technologies, Carlsbad, Calif. Fetal bovine serum was purchased from (InVitrogen, Carlsbad, Calif.).
HEK-293 cells were grown in Minimal Essential Medium containing 10% (v/v) fetal bovine serum at 37° C. in a 5% CO2 incubator. HEK-293 cells stably expressing the ion channels were grown in the same medium with the addition of 500 μg/ml G418.
HEK-293 cells expressing the ion channels of interest were plated in 384 well, black-walled, clear-bottomed, poly-D-lysine coated plates at a density of ˜20,000 cells/well in 20 μl of Minimal Essential Medium containing 10% (v/v) fetal bovine serum and incubated for 2 days at 29° C. in a 5% CO2 incubator. Prior to assay, cells were loaded with the Fluo-4 AM ester. Cell loading was accomplished by removing the culture medium and replacing it with 30 μl/well of the AM ester of the dye (5 μM) mixed with Hanks Balanced Salt Solution (#14175-095) containing 20 mM HEPES, 2.5 mM probenecid, 0.5 mM CaCl2, 1 mM MgCl2 and 10 μM atropine. Dye loading was allowed to proceed for 90 minutes at room temperature at which time the dye loading solution was removed and replaced with 40 μl/well of Hanks buffer. Cells loaded with dye were loaded onto a FLIPR384 (Molecular Devices, Sunnyvale, Calif.). Fluo-4 dye was excited using the 488 nm line of an argon laser. Emission was filtered using a 540+/−30 nm bandpass filter. For evaluation of the effects of test compounds using the Ca^2+ flux assay, compounds to be tested were provided in assay ready plates. For nicotinic receptor ion channel expressing cells, the assay was initiated by the addition of 20 μl/well of Hanks buffer containing test compounds. For all assays, data were collected at 1 Hz for 10 seconds (baseline), at which time the compound containing stimulus buffers are added, and further measurements collected at 0.33 Hz for 3 min.
The statistical robustness of the nicotinic receptor Ca^2+ flux assays is determined from blanks and totals wells. The totals wells define maximal channel activation for each compound test plate (Maximum efficacious dose of acetylcholine), and the blanks wells which contain matched DMSO only, define zero channel activation. […]

[1] = FLIPR α7 (EC50, nM), HEK 293 cells, Ca2+ flux, agonist potency
[2] = FLIPR α7 activity rating (EC50, nM), HEK 293 cells, Ca2+ flux, class rating of EC50

T1 sequence (Q05941 23-502): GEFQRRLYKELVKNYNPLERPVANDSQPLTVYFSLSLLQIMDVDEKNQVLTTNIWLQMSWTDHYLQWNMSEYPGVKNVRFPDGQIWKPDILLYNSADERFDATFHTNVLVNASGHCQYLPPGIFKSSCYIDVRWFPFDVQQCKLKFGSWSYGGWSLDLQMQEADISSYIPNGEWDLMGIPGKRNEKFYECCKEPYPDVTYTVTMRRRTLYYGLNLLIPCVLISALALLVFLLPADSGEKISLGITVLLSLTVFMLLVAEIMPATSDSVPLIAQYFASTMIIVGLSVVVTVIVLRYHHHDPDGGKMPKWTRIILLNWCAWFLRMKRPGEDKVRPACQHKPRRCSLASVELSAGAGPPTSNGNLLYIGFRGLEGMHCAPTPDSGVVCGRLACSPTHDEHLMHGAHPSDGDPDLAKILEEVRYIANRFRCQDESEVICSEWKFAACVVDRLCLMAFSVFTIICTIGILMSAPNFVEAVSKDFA

| Compound | EC50 [1] | EC50 [2] | EC50 |
| --- | --- | --- | --- |
| Clc1cccc2c1nc1n2C[C@@]2(CN3CCC2CC3)O1 (single isomer, unassigned) [Example 9b] | 24.6 nM | < 100 nM |  |
| Cc1c(Br)nc2n1CC1(CN3CCC1CC3)O2 (racemic) [Example 3b, 6-Bromo-5-methyl-3H-1′-azaspiro[imidazo[2,1-b]oxazole-2,3′-bicyclo[2.2.2]octane]] | 71.4 nM | < 100 nM |  |
| c1ccc2c(c1)nc1n2C[C@@]2(CN3CCC2CC3)O1 (single isomer, unassigned) [Example 4a] | 13.6 nM | < 100 nM |  |
| Cc1cccc2c1nc1n2C[C@@]2(CN3CCC2CC3)O1 (single isomer, unassigned) [Example 10b] | 9.1 nM | < 100 nM |  |
| COc1ccc(-c2cccc3c2nc2n3C[C@]3(CN4CCC3CC4)O2)cc1 (single isomer, unassigned) [Example 12a] | > 100000 nM | > 1e+06 nM |  |
| Cc1nc2c(cc1Br)nc1n2CC2(CN3CCC2CC3)O1 (racemic) [Example 18, 7-Bromo-6-methyl-3H-1′-azaspiro[oxazolo[2′,3′:2,3]imidazo[4,5-b]pyridine-2,3′-bicyclo[2.2.2]octane]] | 967 nM | 100 to 1000 nM |  |
| Brc1nc2n(c1Br)C[C@]1(CN3CCC1CC3)O2 (single isomer, unassigned) [Example 1a] | 5690 nM | 1000 to 100000 nM |  |
| FC(F)(F)c1ccc2nc3n(c2c1)C[C@]1(CN2CCC1CC2)O3 (single isomer, unassigned) [Example 8c] |  | > 1e+06 nM | > 100000 nM |
| FC(F)(F)c1ccc2c(c1)nc1n2C[C@@]2(CN3CCC2CC3)O1 (single isomer, unassigned) [Example 8a] | 4.7 nM | < 100 nM |  |
| c1ccc(-c2nc3n(n2)C[C@]2(CN4CCC2CC4)O3)cc1 [Example 14a, (S)-2-Phenyl-6H-1′-azaspiro[oxazolo[3,2-b][1,2,4]triazole-5,3′-bicyclo[2.2.2]octane]] | 437 nM | 100 to 1000 nM |  |
| Brc1nc2n(c1Br)C[C@@]1(CN3CCC1CC3)O2 (single isomer, unassigned) [Example 1b] | 19.6 nM | < 100 nM |  |
| Brc1cnc2c(c1)nc1n2CC2(CN3CCC2CC3)O1 (racemic) [Example 19, 7-Bromo-3H-1′-azaspiro[oxazolo[2′,3′:2,3]imidazo[4,5-b]pyridine-2,3′-bicyclo[2.2.2]octane]] | 49 nM | < 100 nM |  |
| Cc1cc2nc3n(c2cc1C)C[C@@]1(CN2CCC1CC2)O3 (single isomer, unassigned) [Example 5a] | 65.3 nM | < 100 nM |  |
| FC(F)(F)c1ccc2nc3n(c2c1)C[C@@]1(CN2CCC1CC2)O3 (single isomer, unassigned) [Example 8b] |  | 1000 to 100000 nM | 7190 nM |
| Cc1ccc2c(c1)nc1n2C[C@@]2(CN3CCC2CC3)O1 (single isomer, unassigned) [Example 7b] | 5.1 nM | < 100 nM |  |
| Cc1cc2nc3n(c2cc1C)C[C@]1(CN2CCC1CC2)O3 (single isomer, unassigned) [Example 5b] | > 100000 nM | > 1e+06 nM |  |
| Clc1cccc2c1nc1n2C[C@]2(CN3CCC2CC3)O1 (single isomer, unassigned) [Example 9a] | 12100 nM | 1000 to 100000 nM |  |
| COc1ccc2c(c1)nc1n2C[C@@]2(CN3CCC2CC3)O1 (single isomer, unassigned) [Example 6b] | 10.3 nM | < 100 nM |  |
| COc1ccc2c(c1)nc1n2C[C@]2(CN3CCC2CC3)O1 (single isomer, unassigned) [Example 6a] | 1430 nM | 1000 to 100000 nM |  |

| Compound | EC50 [1] | EC50 [2] | EC50 |
| --- | --- | --- | --- |
| c1ccc2c(c1)nc1n2C[C@]2(CN3CCC2CC3)O1 (single isomer, unassigned) [Example 4b] | 6660 nM | 1000 to 100000 nM |  |
| c1cncc(-c2ccc3c(c2)nc2n3C[C@]3(CN4CCC3CC4)O2)c1 (single isomer, unassigned) [Example 13a] | 2990 nM | 1000 to 100000 nM |  |
| Clc1nc2n(c1Cl)C[C@]1(CN3CCC1CC3)O2 [Example 2a, (S)-5,6-Dichloro-3H-1′-azaspiro[imidazo[2,1-b]oxazole-2,3′-bicyclo[2.2.2]octane]] | 1500 nM | 1000 to 100000 nM |  |
| c1ccc(-c2cn3c(n2)O[C@]2(CN4CCC2CC4)C3)cc1 [Example 21b, (R)-6-Phenyl-3H-1′-azaspiro[imidazo[2,1-b]oxazole-2,3′-bicyclo[2.2.2]octane]] | 53 nM | < 100 nM |  |
| Cc1cccc2c1nc1n2C[C@]2(CN3CCC2CC3)O1 (single isomer, unassigned) [Example 10a] | 263 nM | 100 to 1000 nM |  |
| c1nc2n(n1)CC1(CN3CCC1CC3)O2 (racemic) [Example 17, 6H-1′-Azaspiro[oxazolo[3,2-b][1,2,4]triazole-5,3′-bicyclo[2.2.2]octane]] | 321 nM | 100 to 1000 nM |  |
| Clc1cnc2c(c1)nc1n2CC2(CN3CCC2CC3)O1 (racemic) [Example 20, 7-Chloro-3H-1′-azaspiro[oxazolo[2′,3′:2,3]imidazo[4,5-b]pyridine-2,3′-bicyclo[2.2.2]octane]] | 66 nM | < 100 nM |  |
| Clc1nc2n(c1Cl)C[C@@]1(CN3CCC1CC3)O2 [Example 2b, (R)-5,6-Dichloro-3H-1′-azaspiro[imidazo[2,1-b]oxazole-2,3′-bicyclo[2.2.2]octane]] | 14.2 nM | < 100 nM |  |
| c1ccc(-c2cn3c(n2)O[C@@]2(CN4CCC2CC4)C3)cc1 [Example 21a, (S)-6-Phenyl-3H-1′-azaspiro[imidazo[2,1-b]oxazole-2,3′-bicyclo[2.2.2]octane]] | 10 nM | < 100 nM |  |
| FC(F)(F)c1cccc2c1nc1n2C[C@]2(CN3CCC2CC3)O1 (single isomer, unassigned) [Example 11a] | 32500 nM | 1000 to 100000 nM |  |
| Cc1ccc2nc3n(c2c1)C[C@@]1(CN2CCC1CC2)O3 (single isomer, unassigned) [Example 7a] | 35 nM | < 100 nM |  |
| Clc1nc2n(n1)CC1(CN3CCC1CC3)O2 (racemic) [Example 16, 2-Chloro-6H-1′-azaspiro[oxazolo[3,2-b][1,2,4]triazole-5,3′-bicyclo[2.2.2]octane]] | 174 nM | 100 to 1000 nM |  |
| c1ccc(-c2nc3n(n2)C[C@@]2(CN4CCC2CC4)O3)cc1 [Example 14b, (R)-2-Phenyl-6H-1′-azaspiro[oxazolo[3,2-b][1,2,4]triazole-5,3′-bicyclo[2.2.2]octane]] | 4.1 nM | < 100 nM |  |
| Clc1cccc2nc3n(c12)C[C@@]1(CN2CCC1CC2)O3 (single isomer, unassigned) [Example 9c] | 347 nM | 100 to 1000 nM |  |
| Brc1nc2n(n1)CC1(CN3CCC1CC3)O2 (racemic) [Example 15, 2-Bromo-6H-1′-azaspiro[oxazolo[3,2-b][1,2,4]triazole-5,3′-bicyclo[2.2.2]octane]] | 362 nM | 100 to 1000 nM |  |
| FC(F)(F)c1cccc2c1nc1n2C[C@@]2(CN3CCC2CC3)O1 (single isomer, unassigned) [Example 11b] | 22 nM | < 100 nM |  |
| COc1ccc(-c2cccc3c2nc2n3C[C@@]3(CN4CCC3CC4)O2)cc1 (single isomer, unassigned) [Example 12b] | 28 nM | < 100 nM |  |
| FC(F)(F)c1ccc2c(c1)nc1n2C[C@]2(CN3CCC2CC3)O1 (single isomer, unassigned) [Example 8d] | 1330 nM | 1000 to 100000 nM |  |
| Clc1cccc2nc3n(c12)C[C@]1(CN2CCC1CC2)O3 (single isomer, unassigned) [Example 9d] | 3950 nM | 1000 to 100000 nM |  |
